From publication PMC13330650 (Matrix biology : journal of the International Society for …, 2025)
Residue numbers refer to the chain shown, from its start.

What was measured:
UGDH WT [1] = target: T1, UGDH WT (Homo sapiens, UniProt O60701); assay: isothermal titration calorimetry, UDP-Xylose binding to UGDH WT; settings: ITC, single-site binding model
T1 construct: six-histidine; made in house; host or cells: E. coli BL21(DE3)
T1 sequence (O60701 1-494): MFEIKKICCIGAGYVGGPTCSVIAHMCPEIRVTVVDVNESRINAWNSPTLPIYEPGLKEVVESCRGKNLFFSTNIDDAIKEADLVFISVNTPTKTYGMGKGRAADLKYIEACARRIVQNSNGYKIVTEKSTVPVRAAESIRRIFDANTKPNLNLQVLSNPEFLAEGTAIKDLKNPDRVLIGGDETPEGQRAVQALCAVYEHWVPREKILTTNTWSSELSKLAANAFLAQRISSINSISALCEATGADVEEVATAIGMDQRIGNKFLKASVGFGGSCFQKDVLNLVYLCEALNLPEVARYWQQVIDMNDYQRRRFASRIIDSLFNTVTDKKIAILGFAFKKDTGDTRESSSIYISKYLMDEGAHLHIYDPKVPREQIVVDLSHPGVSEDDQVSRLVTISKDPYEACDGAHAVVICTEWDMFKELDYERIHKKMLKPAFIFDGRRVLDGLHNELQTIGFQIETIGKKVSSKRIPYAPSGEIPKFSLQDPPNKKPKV
Source text: (§1) Finally, we tested whether the S316 point mutants impacted inhibition of UGDH by UDP-xylose (UDP-Xyl), which is an endogenous competitive inhibitor of UGDH with nM affinity that causes a conformational change in the crystal structure exposing one of the dimer interfaces. We measured the concentration dependence of UDP-Xyl inhibition in the context of the catalytic reaction at sub-saturating UDP-Glc and NAD^+ and used the resultant curves to calculate the IC50 for UGDH S316A and S316D (Table 1). […] Binding of UDP-Xyl to UGDH independently of catalysis was measured by ITC. […]
(§2) Purified S316 mutants were compared to the UGDH WT enzyme using the following approaches as previously described. Enzymatic activity was evaluated by steady state kinetics in the presence and absence of the endogenous inhibitor UDP-Xylose to compare Michaelis constants and IC50 values. Intrinsic stability was assessed by thermal denaturation and quaternary structure was determined by size exclusion chromatography. Binding of UDP-Xylose to recombinant UGDH and mutants was measured by isothermal titration calorimetry using the MicroCal PEAQ-ITC (Malvern Panalytical). […] Binding heats were corrected for the heat of dilution and analyzed using the MicroCal PEAQ-ITC Analysis Software, employing a single-site binding model to determine Kd values.

UGDH S316A [2] = target: T2, UGDH S316A (Homo sapiens, UniProt O60701, S316A); assay: UDP-Xyl inhibition of the catalytic reaction, UGDH S316A; type: biochemical; settings: sub-saturating UDP-Glc and NAD+, read-out: UDP-Xylose IC50
T2 construct: six-histidine; made in house; host or cells: E. coli BL21(DE3)
T2 sequence (O60701 1-494 S316A): T1 sequence (O60701 1-494) with S316A
Source text: as §1, §2

UGDH S316A [3] = target: T2, UGDH S316A; assay: isothermal titration calorimetry, UDP-Xylose binding to UGDH S316A; settings: ITC, single-site binding model
Source text: as §1, §2

[4] = target: T3, UGDH S316 phosphorylation by RSK2, S6K1, SGK1 (Homo sapiens, UniProt O60701); assay: in vitro kinase assay, phosphorylation of UGDH S316; type: biochemical; settings: in vitro kinase assays with RSK2, S6K1, SGK1; data not shown
T3 construct: made in house
T3 sequence (O60701 1-494): T1 sequence (O60701 1-494)
Method: Due to the location of UGDH S316 at the dimeric interface, we tested whether UGDH oligomeric status influenced the ability of each kinase to phosphorylate UGDH S316. In vitro kinase assays were performed to compare phosphorylation of UGDH S316 in the WT enzyme versus the UGDH T325D obligate dimer mutant. All three kinases produced a phosphorylation band in the dimeric UGDH T325D as expected.
Recombinant UGDH (100 μg) was incubated for 2 h at 30 °C with 1 μg of each kinase and either activated by addition of ATP (200 μM) or a conjugatable ATP analogue, γ-[(6-Azidohexyl)-imido]-ATP. Phosphorylated UGDH was detected by western analysis (using anti-pAkT substrate antibody) or by SDS-PAGE following reaction with tetramethylrhodamine (TAMRA) alkyne, copper, THPTA, and sodium ascorbate.

UGDH WT [5] = target: T1, UGDH WT; assay: UDP-Xyl inhibition of the catalytic reaction, UGDH WT; type: biochemical; settings: sub-saturating UDP-Glc and NAD+, read-out: UDP-Xylose IC50
Source text: as §1, §2

UGDH S316D [6] = target: T4, UGDH S316D (Homo sapiens, UniProt O60701, S316D); assay: isothermal titration calorimetry, UDP-Xylose binding to UGDH S316D; settings: ITC
T4 construct: six-histidine; made in house; host or cells: E. coli BL21(DE3)
T4 sequence (O60701 1-494 S316D): T1 sequence (O60701 1-494) with S316D
Source text: as §1, §2

UGDH S316D [7] = target: T4, UGDH S316D; assay: UDP-Xyl inhibition of the catalytic reaction, UGDH S316D; type: biochemical; settings: sub-saturating UDP-Glc and NAD+, read-out: UDP-Xylose IC50
Source text: as §1, §2

- Kd (UGDH WT [1]): 91 ± 35 nM
- IC50 (UGDH S316A [2]): 250 ± 60 nM
- Kd (UGDH S316A [3]): 71 ± 20 nM
- effect of UDP-Xyl on phosphorylation of UGDH S316 [4]: did not impact phosphorylation
- IC50 (UGDH WT [5]): 220 ± 50 nM
- Kd for UGDH S316D relative to Kd values for UGDH WT and S316A (UGDH S316D [6]; higher for S316D): ≈ 2 fold
- Kd (UGDH S316D [6]; UGDH S316D, single-site binding model): 150 ± 30 nM
- IC50 (UGDH S316D [7]): 250 ± 30 nM
Compound: O=c1ccn([C@@H]2O[C@H](COP(=O)(O)OP(=O)(O)O[C@H]3OC[C@@H](O)[C@H](O)[C@H]3O)[C@@H](O)[C@H]2O)c(=O)[nH]1 [UDP-Xylose]
